According to the NIST ThermoML archive (doi:10.1016/j.jct.2018.01.014):
Values joined by “and” are separate entries in the source; they are usually repeats but may differ in a detail not shown here. Equal values may be shown once. Numbers after ± are expanded uncertainties.

Settings: Liquid, Transpiration method

SMILES: CN1CCC[C@H]1c1cccnc1 [(-)-3-(N-methylpyrrolidino)pyridine]
- vapor or sublimation pressure (288.7 K): 0.002398 ± 0.00015 kPa
- vapor or sublimation pressure (293.8 K): 0.003508 ± 0.00023 kPa
- vapor or sublimation pressure (298.5 K): 0.005519 ± 0.00039 kPa
- vapor or sublimation pressure (303.3 K): 0.008212 ± 0.00056 kPa
- vapor or sublimation pressure (308.2 K): 0.01232 ± 0.00082 kPa and 0.01187 ± 0.00079 kPa
- vapor or sublimation pressure (313.1 K): 0.01822 ± 0.0012 kPa
- vapor or sublimation pressure (318.1 K): 0.02642 ± 0.0017 kPa
- vapor or sublimation pressure (323 K): 0.03648 ± 0.0023 kPa
- vapor or sublimation pressure (327.9 K): 0.05164 ± 0.0033 kPa
- vapor or sublimation pressure (333.2 K): 0.07337 ± 0.0046 kPa
- vapor or sublimation pressure (335.7 K): 0.08301 ± 0.0052 kPa
- vapor or sublimation pressure (338.2 K): 0.1012 ± 0.0063 kPa
- vapor or sublimation pressure (340.7 K): 0.1124 ± 0.0071 kPa
- vapor or sublimation pressure (343.1 K): 0.1387 ± 0.0088 kPa
- vapor or sublimation pressure (345.6 K): 0.1639 ± 0.01 kPa
- vapor or sublimation pressure (348.2 K): 0.2061 ± 0.013 kPa
- vapor or sublimation pressure (350.6 K): 0.222 ± 0.014 kPa
- vapor or sublimation pressure (353.2 K): 0.2733 ± 0.017 kPa
- vapor or sublimation pressure (358.1 K): 0.3726 ± 0.023 kPa
- vapor or sublimation pressure (363.2 K): 0.5077 ± 0.032 kPa
- vapor or sublimation pressure (368.1 K): 0.6692 ± 0.042 kPa
- vapor or sublimation pressure (373.1 K): 0.8635 ± 0.053 kPa
